Assay results taken from ChEMBL document CHEMBL4325863, “Investigating alkyl nitrates as nitric oxide releasing precursors of multitarget acetylcholinesterase-monoamine oxidase B inhibitors” (Eur J Med Chem, 2019).

Experiments:
[1] = molecular target: T1, Amine oxidase [flavin-containing] A (Homo sapiens, UniProt P21397); assay: Inhibition of recombinant human MAO-A expressed in baculovirus infected insect cell microsomes using kynuramine as substrate measured after 30 mins by fluorescence based assay
T1 sequence (P21397 whole entry): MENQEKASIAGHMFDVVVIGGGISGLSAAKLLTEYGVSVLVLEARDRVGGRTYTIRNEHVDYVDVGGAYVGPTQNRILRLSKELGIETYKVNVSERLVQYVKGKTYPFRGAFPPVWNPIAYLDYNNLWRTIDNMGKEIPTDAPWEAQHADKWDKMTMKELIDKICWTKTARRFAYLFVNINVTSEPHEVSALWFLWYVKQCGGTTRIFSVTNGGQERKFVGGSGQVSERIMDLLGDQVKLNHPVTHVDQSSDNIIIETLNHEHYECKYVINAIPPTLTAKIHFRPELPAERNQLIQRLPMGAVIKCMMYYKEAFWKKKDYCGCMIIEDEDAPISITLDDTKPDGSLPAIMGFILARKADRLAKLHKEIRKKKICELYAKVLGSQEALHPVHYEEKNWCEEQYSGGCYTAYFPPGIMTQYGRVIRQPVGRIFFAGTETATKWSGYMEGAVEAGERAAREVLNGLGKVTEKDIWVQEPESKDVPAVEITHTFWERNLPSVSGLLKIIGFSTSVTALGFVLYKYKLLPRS

[2] = molecular target: T2, Amine oxidase [flavin-containing] B (Homo sapiens, UniProt P27338); assay: Inhibition of recombinant human MAO-B expressed in baculovirus infected insect cell microsomes using kynuramine as substrate measured after 30 mins by fluorescence based assay
T2 sequence (P27338 whole entry): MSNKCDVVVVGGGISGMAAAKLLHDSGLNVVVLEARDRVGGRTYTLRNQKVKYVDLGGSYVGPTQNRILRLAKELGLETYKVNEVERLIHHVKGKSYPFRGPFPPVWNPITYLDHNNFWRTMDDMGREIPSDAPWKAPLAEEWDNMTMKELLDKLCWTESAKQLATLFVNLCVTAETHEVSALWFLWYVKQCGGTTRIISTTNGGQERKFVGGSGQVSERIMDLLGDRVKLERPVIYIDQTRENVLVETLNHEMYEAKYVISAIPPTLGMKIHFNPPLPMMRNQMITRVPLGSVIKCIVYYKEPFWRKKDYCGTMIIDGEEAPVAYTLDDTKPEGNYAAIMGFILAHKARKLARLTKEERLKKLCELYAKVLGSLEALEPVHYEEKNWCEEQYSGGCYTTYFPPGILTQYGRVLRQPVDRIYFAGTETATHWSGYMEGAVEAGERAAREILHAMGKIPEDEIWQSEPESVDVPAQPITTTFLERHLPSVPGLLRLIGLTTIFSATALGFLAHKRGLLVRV

Acetylcholinesterase [3] = molecular target: Acetylcholinesterase (Electrophorus electricus, UniProt O42275); assay: Inhibition of electric eel AChE using acetylthiocholine iodide as substrate by Ellman's method
Sequence of Acetylcholinesterase (Electrophorus electricus, UniProt O42275) (O42275 whole entry): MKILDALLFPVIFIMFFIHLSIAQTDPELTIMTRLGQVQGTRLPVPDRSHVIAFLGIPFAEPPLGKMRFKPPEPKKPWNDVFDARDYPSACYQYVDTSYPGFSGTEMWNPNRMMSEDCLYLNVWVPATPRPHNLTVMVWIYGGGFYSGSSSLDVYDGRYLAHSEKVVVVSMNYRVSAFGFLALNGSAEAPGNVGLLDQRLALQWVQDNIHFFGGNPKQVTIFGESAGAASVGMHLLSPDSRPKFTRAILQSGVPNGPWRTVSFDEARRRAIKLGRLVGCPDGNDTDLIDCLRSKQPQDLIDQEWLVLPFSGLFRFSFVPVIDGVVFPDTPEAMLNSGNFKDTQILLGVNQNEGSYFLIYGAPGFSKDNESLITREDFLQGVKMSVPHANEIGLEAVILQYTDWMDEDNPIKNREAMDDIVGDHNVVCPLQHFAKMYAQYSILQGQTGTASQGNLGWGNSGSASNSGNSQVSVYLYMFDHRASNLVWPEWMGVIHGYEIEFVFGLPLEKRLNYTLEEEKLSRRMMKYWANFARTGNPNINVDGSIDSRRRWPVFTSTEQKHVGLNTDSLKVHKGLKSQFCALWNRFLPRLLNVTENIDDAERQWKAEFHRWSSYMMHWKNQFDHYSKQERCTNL

Cholinesterase [4] = molecular target: Cholinesterase (Equus caballus, UniProt P81908); assay: Inhibition of equine serum BuChE using butyrylthiocholine iodide as substrate by Ellman's method
Sequence of Cholinesterase (Equus caballus, UniProt P81908) (P81908 whole entry): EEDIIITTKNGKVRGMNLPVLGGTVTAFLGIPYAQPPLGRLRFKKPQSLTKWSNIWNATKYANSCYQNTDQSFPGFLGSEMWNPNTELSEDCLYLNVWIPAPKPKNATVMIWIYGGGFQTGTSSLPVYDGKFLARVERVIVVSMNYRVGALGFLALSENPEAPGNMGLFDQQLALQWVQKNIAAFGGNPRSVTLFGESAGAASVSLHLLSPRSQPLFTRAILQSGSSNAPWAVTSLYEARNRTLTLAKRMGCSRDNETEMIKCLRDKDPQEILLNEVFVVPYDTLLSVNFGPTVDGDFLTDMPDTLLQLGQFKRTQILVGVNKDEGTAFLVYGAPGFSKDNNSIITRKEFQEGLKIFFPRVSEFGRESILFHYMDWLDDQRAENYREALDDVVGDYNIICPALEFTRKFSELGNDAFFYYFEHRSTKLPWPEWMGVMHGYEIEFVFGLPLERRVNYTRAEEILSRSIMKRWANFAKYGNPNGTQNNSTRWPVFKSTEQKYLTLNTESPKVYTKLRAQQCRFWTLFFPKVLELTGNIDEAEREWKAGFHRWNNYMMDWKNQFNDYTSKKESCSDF

[5] = molecular target: T2, Amine oxidase [flavin-containing] B; assay: Inhibition of recombinant human MAO-B expressed in baculovirus infected insect cell microsomes using kynuramine as substrate measured after 30 mins by spectrophotometric assay
[6] = molecular target: Cholinesterase (Equus caballus) (UniProt P81908); assay: Inhibition of equine serum BuChE at 10 uM using butyrylthiocholine iodide as substrate by Ellman's method relative to control
Sequence of Cholinesterase (Equus caballus) (P81908 whole entry): as above

[7] = molecular target: T1, Amine oxidase [flavin-containing] A; assay: Inhibition of recombinant human MAO-A expressed in baculovirus infected insect cell microsomes at 10 uM using kynuramine as substrate measured after 30 mins by fluorescence based assay relative to control; conditions: 0.5 h
[8] = Efflux ratio of apparent permeability in MDCK2-MDR1 cells by UV-Visible spectrophotometric method; assay type: ADME, cell-based, Canis lupus familiaris; conditions: dog, MDCK-MDR1
[9] = Apparent permeability from basolateral to apical side in MDCK2-MDR1 cells by UV-Visible spectrophotometric method; assay type: ADME, cell-based, Canis lupus familiaris; conditions: dog, MDCK-MDR1
[10] = Apparent permeability from apical to basolateral side in MDCK2-MDR1 cells by UV-Visible spectrophotometric method; assay type: ADME, cell-based, Canis lupus familiaris; conditions: dog, MDCK-MDR1
Acetylcholinesterase [11] = molecular target: Acetylcholinesterase (Homo sapiens, UniProt P22303); assay: Inhibition of human recombinant AChE using acetylthiocholine iodide as substrate by Ellman's method
Sequence of Acetylcholinesterase (Homo sapiens, UniProt P22303) (P22303 whole entry): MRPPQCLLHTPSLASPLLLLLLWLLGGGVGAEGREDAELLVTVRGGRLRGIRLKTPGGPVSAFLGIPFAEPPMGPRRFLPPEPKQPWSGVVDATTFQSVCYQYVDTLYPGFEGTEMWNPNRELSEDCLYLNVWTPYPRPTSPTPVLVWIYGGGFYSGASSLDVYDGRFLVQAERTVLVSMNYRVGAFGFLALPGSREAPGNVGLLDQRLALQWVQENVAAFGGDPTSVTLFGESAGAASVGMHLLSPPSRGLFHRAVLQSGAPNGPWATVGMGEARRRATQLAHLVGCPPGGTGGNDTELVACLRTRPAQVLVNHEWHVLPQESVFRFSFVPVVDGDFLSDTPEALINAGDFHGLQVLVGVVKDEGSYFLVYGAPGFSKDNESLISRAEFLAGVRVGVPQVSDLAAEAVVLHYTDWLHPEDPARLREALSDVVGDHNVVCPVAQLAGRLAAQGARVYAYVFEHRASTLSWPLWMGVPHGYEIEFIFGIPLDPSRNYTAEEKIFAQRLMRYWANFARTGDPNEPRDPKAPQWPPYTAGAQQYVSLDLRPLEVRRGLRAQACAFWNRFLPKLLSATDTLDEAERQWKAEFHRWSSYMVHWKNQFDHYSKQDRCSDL

SH-SY5Y [12] = assay: Neuroprotection against rotenone/H2O2-induced cell death in human SH-SY5Y cells assessed as increase in cell viability preincubated for 24 hrs followed by rotenone/H2O2 addition measured after 24 hrs by MTT assay; assay type: functional, cell-based
SH-SY5Y [13] = assay: Cytotoxicity against human SH-SY5Y cells assessed as reduction in cell viability after 24 hrs by MTT assay; assay type: cell-based
[14] = molecular target: T2, Amine oxidase [flavin-containing] B; assay: Inhibition of recombinant human MAO-B expressed in baculovirus infected insect cell microsomes at 10 uM using kynuramine as substrate measured after 30 mins by fluorescence based assay relative to control; conditions: 0.5 h
Homo sapiens = organism: Homo sapiens; assay: Selectivity index, ratio of IC50 for recombinant human MAO-A to IC50 for recombinant human MAO-B
[15] = Selectivity index, ratio of IC50 for equine serum BuChE to IC50 for electric eel AChE
Cholinesterase [16] = molecular target: T3, Cholinesterase (Homo sapiens, UniProt P06276); assay: Inhibition of human serum BuChE using butyrylthiocholine iodide as substrate by Ellman's method
T3 sequence (P06276 whole entry): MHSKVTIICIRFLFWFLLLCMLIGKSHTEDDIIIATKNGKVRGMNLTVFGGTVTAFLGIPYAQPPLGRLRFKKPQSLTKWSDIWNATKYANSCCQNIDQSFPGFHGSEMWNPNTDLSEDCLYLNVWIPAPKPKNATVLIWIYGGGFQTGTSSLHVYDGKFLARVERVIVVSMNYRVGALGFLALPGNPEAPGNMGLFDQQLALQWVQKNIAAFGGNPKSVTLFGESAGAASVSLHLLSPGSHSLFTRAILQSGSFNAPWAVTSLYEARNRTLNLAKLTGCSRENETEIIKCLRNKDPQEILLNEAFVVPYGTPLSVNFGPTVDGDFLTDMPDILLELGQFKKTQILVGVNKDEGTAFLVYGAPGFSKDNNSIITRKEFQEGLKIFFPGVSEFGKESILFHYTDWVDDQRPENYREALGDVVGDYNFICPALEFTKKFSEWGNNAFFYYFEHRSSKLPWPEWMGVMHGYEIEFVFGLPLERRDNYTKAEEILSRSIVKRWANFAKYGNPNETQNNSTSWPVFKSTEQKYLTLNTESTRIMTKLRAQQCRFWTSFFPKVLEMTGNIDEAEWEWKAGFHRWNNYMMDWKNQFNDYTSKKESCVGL

Cholinesterase [17] = molecular target: T3, Cholinesterase; assay: Inhibition of human serum BuChE at 10 uM using butyrylthiocholine iodide as substrate by Ellman's method relative to control
[18] = Drug metabolism in PBS buffer assessed as nitric oxide release at 150 uM in presence of cysteine by Griess reagent based UV-Visible spectrophotometric method; conditions: TDE = time-dependent effect
[19] = Half life in human serum at 100 uM by RP-HPLC method; assay type: ADME, cell-free
[20] = Drug metabolism in pH 7.4 PBS buffer assessed as 7-({1-[3-(Hydroxymethyl)benzyl]piperidin-4-yl}methoxy)-3,4-dimethyl-2H-chromen-2-one formation at 100 uM up to 30 hrs in presence of glutathione by RP-HPLC method
[21] = Drug metabolism in pH 7.4 PBS buffer assessed as 7-({1-[3-(Hydroxymethyl)benzyl]piperidin-4-yl}methoxy)-3,4-dimethyl-2H-chromen-2-one formation at 100 uM after 24 hrs by RP-HPLC method
[22] = Drug metabolism in pH 7.4 PBS buffer assessed as 7-({1-[3-(Hydroxymethyl)benzyl]piperidin-4-yl}methoxy)-3,4-dimethyl-2H-chromen-2-one formation at 100 uM up to 30 hrs in presence of cysteine by RP-HPLC method

SMILES	IC50 [1] [µM]	IC50 [2] [µM]	IC50 (Acetylcholinesterase [3]) [µM]	IC50 (Cholinesterase [4]) [µM]	inhibition [6] [%]	inhibition at 10 µM [7] [%]	other results
Cc1c(C)c2ccc(OCC3CCCN(Cc4cccc(CO)c4)C3)cc2oc1=O (centres undefined)	2.2	0.11	0.9	2.7			
CN(C)Cc1ccc(COc2ccc3c(CO)cc(=O)oc3c2)cc1		0.078	4.5		43	20	IC50 [5]: 0.074 µM
Cc1c(C)c2ccc(OCC3CCN(Cc4cccc(CO)c4)CC3)cc2oc1=O	1.9	0.076	1	1.3			efflux ratio [8]: 1.09; Papp B→A [9]: 21.5 ×10⁻⁶ cm/s; Papp A→B [10]: 19.8 ×10⁻⁶ cm/s; IC50 (Acetylcholinesterase [11]): 1.4 µM; Activity (SH-SY5Y [12]): Dose-dependent effect; Activity (SH-SY5Y [13]): 43 µM
Cc1c(C)c2ccc(OCC3CCN(Cc4ccc(CCO)cc4)CC3)cc2oc1=O	1.7	0.12	1.2		41		
O=c1ccc2ccc(OCC3CCCN(CCCO)C3)cc2o1 (centres undefined)			3.5	1.7		14	inhibition at 10 µM [14]: 42%
Cc1cc2ccc(OCC3CCN(Cc4ccc(CO)cc4)CC3)cc2oc1=O		3.1	3	8.1		43	
Cc1c(C)c2ccc(OCC3CCN(Cc4ccc(CO)cc4)CC3)cc2oc1=O	1.4	0.029	1	8.8			IC50 [5]: 0.039 µM; Ratio IC50 (Homo sapiens): 48
Cc1cc(=O)oc2cc(OCC3CCN(Cc4ccc(CO)cc4)CC3)ccc12	11	0.6	1.6		45		
Cc1c(C)c2ccc(OCC3CCN(Cc4cccc(OCCCO)c4)CC3)cc2oc1=O	0.55	0.78	1.8	0.18			Ratio IC50 [15]: 0.1; IC50 (Cholinesterase [16]): 0.74 µM; IC50 (Acetylcholinesterase [11]): 0.84 µM; Ratio IC50 (Homo sapiens): 0.7
Cc1c(C)c2ccc(OCC3CCCN(Cc4ccc(CO)cc4)C3)cc2oc1=O (centres undefined)	1.1	0.076	1.2	8.6			
Cc1cc(=O)oc2cc(OCC3CCN(Cc4cccc(CO)c4)CC3)ccc12	3.5	0.48	1.6	1.9			
CN(C)Cc1cc(=O)oc2cc(OCc3ccc(CO)cc3)ccc12		0.63	1.3	11		23	IC50 [5]: 0.77 µM
Cc1c(C)c2ccc(OCC3CCN(CCCCO)CC3)cc2oc1=O		3.6	0.5	8.3		30	
Cc1cc2ccc(OCC3CCN(Cc4cccc(CO)c4)CC3)cc2oc1=O	3.9	1.1	3.2	0.91			
Cc1c(C)c2ccc(OCc3cccc(CN4CCC(CO)CC4)c3)cc2oc1=O		0.32	2.9	1		23	
Cc1c(C)c2ccc(OCC3CCN(CCCO)CC3)cc2oc1=O		0.48	1.3		30	44	efflux ratio [8]: 1.5; Papp B→A [9]: 14.9 ×10⁻⁶ cm/s; inhibition (Cholinesterase [17]): < 5%; Papp A→B [10]: 9.92 ×10⁻⁶ cm/s; IC50 (Acetylcholinesterase [11]): 0.89 µM; Activity (SH-SY5Y [12]): Dose-dependent effect; Activity (SH-SY5Y [13]): > 100 µM
CN(C)Cc1cc(=O)oc2cc(OCc3cccc(CO)c3)ccc12		1.1	4.4		35	21	
Cc1c(C)c2ccc(OCC3CCCN(CCCO)C3)cc2oc1=O (centres undefined)		1.5	1.8		26	41	
CN(C)Cc1cccc(COc2ccc3c(CO)cc(=O)oc3c2)c1		0.054	5.9		36	42	
Cc1c(C)c2ccc(OCCC3CCN(CCCO)CC3)cc2oc1=O			0.72		39	35	inhibition at 10 µM [14]: 31%
Cc1c(C)c2ccc(OCC3CCN(Cc4cccc(CO[N+](=O)[O-])c4)CC3)cc2oc1=O	0.23	0.051					efflux ratio [8]: 1.33; Papp B→A [9]: 16.5 ×10⁻⁶ cm/s; Drug metabolism [18]: Tde; half-life at 100 µM [19]: 36.8 h; Drug metabolism [20]: Metabolite detected; Drug metabolism [21]: 7%; Papp A→B [10]: 12.4 ×10⁻⁶ cm/s; IC50 (Acetylcholinesterase [11]): 1.3 µM; Drug metabolism [22]: Metabolite detected; Activity (SH-SY5Y [12]): Dose-dependent effect; Activity (SH-SY5Y [13]): 36 µM
